From US6936604B2, “Bridged bicyclic amino acid-derived [1,4]benzodiazepine vasopressin receptor antagonists” (Ortho-McNeil Pharmaceutical, Inc., priority 2001, dated 2005)
Marks after values point to notes of the source that are not given here.

Key:
human V2 receptor = target: T1, human V2 receptor (Homo sapiens, UniProt P30518); assay: In vitro recombinant vasopressin receptor binding assay (3H-arginine vasopressin displacement), V2; details: cloned human V2 receptor membranes, HEK-293 cells
T1 construct: expressed in transfected cells; host or cells: HEK-293
Method: (§1) In Vitro Recombinant Vasopressin Receptor Binding Assay
(§2) Compounds were assessed for their ability to displace ^3H-arginine vasopressin from the human V1a or V2 receptor in HEK-293 cells. Assay buffer is 50 mM Tris-Cl, 5 mM MgCl2, 0.1% BSA (pH 7.5) containing 5 μg/mL of aprotinin, leupeptin, pepstatin, 50 μg/mL bacitracin, and 1 mM Pefabloc. ^3H-vasopressin is ^3H-arginine-8-vasopressin (68.5 Ci/mmol, final concentration in assay is 0.65-0.75 nM). Into wells of 96-well round bottom polypropylene plates were added buffer, test compound, membrane (containing cloned human V1a or V2 receptor) and ^3H-vasopressin. The reaction plates were allowed to sit at room temperature for one hour. The samples were filtered through Unifilter GF/C plates (presoaked in 0.3 polyethyleneimine). The plates were washed 5 times with cold physiological saline containing 0.05% Tween 20. After drying, the bottom of the filter plates were sealed and 0.025 mL of Microscint-20 was added to each filter. The top of the plate was sealed, and the plate was counted.

[1] = system: conscious hydrated male rats; assay: Diuresis study, acute diuretic effect after oral administration; type: in vivo, Sprague Dawley rats; details: 4 hours urine collection, mean±SE
Method: The acute diuretic effect of compounds of the invention after oral administration was tested according to the procedure described herein.
Mature male Sprague Dawley rats, 200-300 gms, from Charles River Labs Inc. were housed one rat per cage, in a rodent room. Room temperature was maintained at […] and humidity at 30-70%. Room lighting was on a 12 hrs light/12 hrs dark cycle. Rats were fed laboratory rodent diet, #5001 (supplied from Purina Mills, St.Louis, Mo. via W. F. Fisher, Bound Brook, N.J.).
Four different concentrations of test compound were prepared. For each dose, compound was prepared as a uniform suspension in 0.5% methylcellulose vehicle using a water bath sonicator to ensure uniform suspension and dosed in a volume of 2 ml/kg.
All animals were fasted for 18 hours and weights were taken and recorded for each animal. Animals were dosed orally with drug via gavage needle. After oral dosing, animals were placed into metabolism racks for 4 hours. The urine was collected and the volume measured. Aliquots of 0.5 mL were stored at 4° C. for later analysis.
Each value represents the mean±SE. *Data has a p value of <0.05 versus vehicle using Dunnett's Multiple Comparison Test. **Data has a p value of <0.01 versus vehicle. ^aNumber of animals in parentheses represent the number of animals providing osmolality values (if different than the number of animals providing urine volume values).

human V1a receptor = target: T2, human V1a receptor (Homo sapiens, UniProt P37288); assay: In vitro recombinant vasopressin receptor binding assay (3H-arginine vasopressin displacement), V1a; details: cloned human V1a receptor membranes, HEK-293 cells
T2 construct: expressed in transfected cells; host or cells: HEK-293
Method: as §1, §2

T2 sequence (P37288 whole entry): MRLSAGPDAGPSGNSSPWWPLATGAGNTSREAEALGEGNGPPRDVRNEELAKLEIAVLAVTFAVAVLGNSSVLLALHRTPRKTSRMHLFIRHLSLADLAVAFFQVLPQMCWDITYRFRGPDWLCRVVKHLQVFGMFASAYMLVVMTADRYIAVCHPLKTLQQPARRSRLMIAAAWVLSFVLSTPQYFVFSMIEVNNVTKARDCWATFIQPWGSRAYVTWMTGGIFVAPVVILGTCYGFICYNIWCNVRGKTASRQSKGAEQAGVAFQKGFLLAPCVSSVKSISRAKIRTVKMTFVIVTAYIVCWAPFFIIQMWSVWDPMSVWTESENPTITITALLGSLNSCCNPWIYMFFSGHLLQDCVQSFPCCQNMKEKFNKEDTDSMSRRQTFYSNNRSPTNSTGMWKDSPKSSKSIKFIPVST

Compound | IC50 (human V2 receptor) | IC50 (human V1a receptor) | also measured
O=C(Nc1ccc(C(=O)N2C[C@H]3C4CCC(C4)N3Cc3ccccc32)c(Cl)c1)c1ccccc1-c1ccccc1 (stereo partly drawn) [Compound 5, N-[4-[[(6aR)-6,6a,7,8,9,10-hexahydro-7,10-methanopyrido[2,1-c][1,4]benzodiazepin-5(12H)-yl]carbonyl]-3-chlorophenyl]-[1,1′-biphenyl]-2-carboxamide] | 15 nM | – | Urine Osmolality ([1]; 0.3 mg/Kg oral): 408 ± 37* mOsm/kg; Urine Volume ([1]; 0.3 mg/Kg oral): 1.4 ± 0.1* mL; Urine Osmolality ([1]; 1.0 mg/Kg oral): 303 ± 29* mOsm/kg; Urine Volume ([1]; 1.0 mg/Kg oral): 3.4 ± 0.4* mL; Urine Osmolality ([1]; 3.0 mg/Kg oral): 238 ± 18* mOsm/kg; Urine Volume ([1]; 3.0 mg/Kg oral): 9.4 ± 1.1* mL; Urine Osmolality ([1]; 10 mg/Kg oral): 172 ± 9* mOsm/kg; Urine Volume ([1]; 10 mg/Kg oral): 19.5 ± 1.4* mL
O=C(Nc1ccc(C(=O)N2C[C@@H]3C4CCC(C4)N3Cc3ccccc32)c(Cl)c1)c1ccccc1-c1ccccc1 (mixture of isomers) [Compound 3, N-[4-[[(6aS)-6,6a,7,8,9,10-hexahydro-7,10-methanopyrido[2,1-c][1,4]benzodiazepin-5(12H)-yl]carbonyl]-3-chlorophenyl]-[1,1′-biphenyl]-2-carboxamide] | 15 nM | – | –
O=C(Nc1ccc(C(=O)N2C[C@@H]3C4CCC(C4)N3Cc3cc(Cl)ccc32)cc1)c1ccccc1-c1ccc(F)cc1 (stereo partly drawn) [Compound 9, N-[4-[[(6aS)-2-chloro-6,6a,7,8,9,10-hexahydro-7,10-methanopyrido[2,1-c][1,4]benzodiazepin-5(12H)-yl]carbonyl]phenyl]-4′-fluoro-[1,1′-biphenyl]-2-carboxamide] | 26 nM | 68 nM | –
N-[4-[[(6aS)-2-chloro-6,6a,7,8,9,10-hexahydro-7,10-methanopyrido[2,1-c][1,4]benzodiazepin-5(12H)-yl]carbonyl]-3-chlorophenyl]-2-(trifluoromethyl)-benzamide [Compound 12] | 15 nM | 10 nM | –
Cc1ccc(-c2ccccc2C(=O)Nc2ccc(C(=O)N3C[C@@H]4C5CCC(C5)N4Cc4ccccc43)c(Cl)c2)cc1 (stereo partly drawn) [Compound 7, N-[4-[[(6aS)-6,6a,7,8,9,10-hexahydro-7,10-methanopyrido[2,1-c][1,4]benzodiazepin-5(12H)-yl]carbonyl]-3-chlorophenyl]-4′-methyl-[1,1′-biphenyl]-2-carboxamide] | 3 nM | 35 nM | –
Cc1ccc(-c2ccccc2C(=O)Nc2ccc(C(=O)N3C[C@@H]4C5CCC(CC5)N4Cc4cc(Cl)ccc43)cc2)cc1 [Compound 16, N-[4-[[(6aS)-2-chloro-6,6a,7,8,9,10-hexahydro-7,10-ethanopyrido[2,1-c][1,4]benzodiazepin-5(12H)-yl]carbonyl]phenyl]-4′-methyl-[1,1′-biphenyl]-2-carboxamide] | 72 nM | 59 nM | –
O=C(Nc1ccc(C(=O)N2C[C@@H]3C4CCC(C4)N3Cc3ccccc32)c(Cl)c1)c1ccccc1-c1ccccc1 (stereo partly drawn) [Compound 4, N-[4-[[(6aS)-6,6a,7,8,9,10-hexahydro-7,10-methanopyrido[2,1-c][1,4]benzodiazepin-5(12H)-yl]carbonyl]-3-chlorophenyl]-[1,1′-biphenyl]-2-carboxamide] | 4 nM | 24 nM | Urine Osmolality ([1]; 0.3 mg/Kg oral): 444 ± 79* mOsm/kg; Urine Volume ([1]; 0.3 mg/Kg oral): 2.5 ± 0.3 mL; Urine Osmolality ([1]; 1.0 mg/Kg oral): 299 ± 34* mOsm/kg; Urine Volume ([1]; 1.0 mg/Kg oral): 6.0 ± 0.7* mL; Urine Osmolality ([1]; 3.0 mg/Kg oral): 180 ± 9* mOsm/kg; Urine Volume ([1]; 3.0 mg/Kg oral): 15.1 ± 1.4* mL; Urine Osmolality ([1]; 10 mg/Kg oral): 138 ± 11* mOsm/kg; Urine Volume ([1]; 10 mg/Kg oral): 29.9 ± 2.0* mL
O=C(Nc1ccc(C(=O)N2CC3C4CCC(CC4)N3Cc3ccccc32)c(Cl)c1)c1ccccc1-c1ccccc1 (racemic) [Compound 2, N-[4-[(6,6a,7,8,9,10-hexahydro-7,10-ethanopyrido[2,1-c][1,4]benzodiazepin-5(12H)-yl)carbonyl]-3-chlorophenyl]-[1,1′-biphenyl]-2-carboxamide] | 4 nM | – | –
Cc1ccc(F)cc1C(=O)Nc1ccc(C(=O)N2C[C@@H]3C4CCC(CC4)N3Cc3ccccc32)c(Cl)c1 [Compound 14, N-[4-[[(6aS)-6,6a,7,8,9,10-hexahydro-7,10-ethanopyrido[2,1-c][1,4]benzodiazepin-5(12H)-yl]carbonyl]-3-chlorophenyl]-5-fluoro-2-methyl-benzamide] | 19 nM | – | –
Cc1ccc(-c2ccccc2C(=O)Nc2ccc(C(=O)N3C[C@@H]4C5CCC(C5)N4Cc4cc(Cl)ccc43)cc2)cc1 (stereo partly drawn) [Compound 6, N-[4-[[(6aS)-2-chloro-6,6a,7,8,9,10-hexahydro-7,10-methanopyrido[2,1-c][1,4]benzodiazepin-5(12H)-yl]carbonyl]phenyl]-4′-methyl-[1,1′-biphenyl]-2-carboxamide] | 5 nM | 24 nM | Urine Osmolality ([1]; 1.0 mg/Kg oral): 387 ± 15 mOsm/kg; Urine Volume ([1]; 1.0 mg/Kg oral): 2.9 ± 0.2 mL; Urine Osmolality ([1]; 3.0 mg/Kg oral): 226 ± 9** mOsm/kg; Urine Volume ([1]; 3.0 mg/Kg oral): 5.8 ± 0.5** mL; Urine Osmolality ([1]; 10 mg/Kg oral): 159 ± 9** mOsm/kg; Urine Volume ([1]; 10 mg/Kg oral): 17.8 ± 1.3** mL
O=C(Nc1ccc(C(=O)N2C[C@@H]3C4CCC(CC4)N3Cc3cc(Cl)ccc32)cc1)c1ccccc1Cl [Compound 15, N-[4-[[(6aS)-2-chloro-6,6a,7,8,9,10-hexahydro-7,10-ethanopyrido[2,1-c][1,4]benzodiazepin-5(12H)-yl]carbonyl]phenyl]-2-chloro-benzamide] | 35 nM | 13 nM | –
O=C(Nc1ccc(C(=O)N2C[C@@H]3C4CCC(C4)N3Cc3cc(Cl)ccc32)cc1)c1ccccc1F (stereo partly drawn) [Compound 10, N-[4-[[(6aS)-2-chloro-6,6a,7,8,9,10-hexahydro-7,10-methanopyrido[2,1-c][1,4]benzodiazepin-5(12H)-yl]carbonyl]phenyl]-2-fluoro-benzamide] | 10 nM | 5 nM | –
O=C(Nc1ccc(C(=O)N2C[C@@H]3C4CCC(C4)N3Cc3cc(Cl)ccc32)cc1)c1ccccc1Cl (stereo partly drawn) [Compound 11, N-[4-[[(6aS)-2-chloro-6,6a,7,8,9,10-hexahydro-7,10-methanopyrido[2,1-c][1,4]benzodiazepin-5(12H)-yl]carbonyl]phenyl]-2-chloro-benzamide] | 7 nM | 4 nM | –
O=C(Nc1ccc(C(=O)N2C[C@@H]3C4CCC(CC4)N3Cc3ccccc32)c(Cl)c1)c1ccccc1-c1ccccc1 [Compound 13, N-[4-[[(6aS)-6,6a,7,8,9,10-hexahydro-7,10-ethanopyrido[2,1-c][1,4]benzodiazepin-5(12H)-yl]carbonyl]-3-chlorophenyl]-[1,1′-biphenyl]-2-carboxamide] | 24 nM | – | –
